Results published in US20090306133A1, “New Acetyl Coenzyme A Carboxylase (ACC) Inhibitors And Uses In Treatments Of Obesity And Diabetes Mellitus - 087” (ASTRAZENECA AB, priority 2007, published 2009).

Legend:
[1] = target: Human recombinant Acetyl-CoA Carboxylase 2 (ACC2) (Homo sapiens, UniProt O00763); experiment: Assay Y: ACC2 inhibition, inorganic phosphate (Malachite Green); assay type: biochemical; conditions: Assay Y: room temperature, 3 hr, 15 min preincubation
In short: (§1)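 Enzyme preincubated with compound 15 min before substrate addition; reaction run 3 h, then phosphate detected with Malachite Green at 670 nm after 10 min at room temperature. Triplicate 10-point titrations; IC50 by non-linear four-parameter curve fitting.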

[2] = target: Human recombinant Acetyl-CoA Carboxylase 1 (ACC1) (Homo sapiens, UniProt Q13085); experiment: Assay Y: ACC1 inhibition, inorganic phosphate (Malachite Green); assay type: biochemical; conditions: Assay Y: room temperature, 3 hr, 15 min preincubation
In short: as §1

Sequence of Human recombinant Acetyl-CoA Carboxylase 2 (ACC2) (O00763 whole entry): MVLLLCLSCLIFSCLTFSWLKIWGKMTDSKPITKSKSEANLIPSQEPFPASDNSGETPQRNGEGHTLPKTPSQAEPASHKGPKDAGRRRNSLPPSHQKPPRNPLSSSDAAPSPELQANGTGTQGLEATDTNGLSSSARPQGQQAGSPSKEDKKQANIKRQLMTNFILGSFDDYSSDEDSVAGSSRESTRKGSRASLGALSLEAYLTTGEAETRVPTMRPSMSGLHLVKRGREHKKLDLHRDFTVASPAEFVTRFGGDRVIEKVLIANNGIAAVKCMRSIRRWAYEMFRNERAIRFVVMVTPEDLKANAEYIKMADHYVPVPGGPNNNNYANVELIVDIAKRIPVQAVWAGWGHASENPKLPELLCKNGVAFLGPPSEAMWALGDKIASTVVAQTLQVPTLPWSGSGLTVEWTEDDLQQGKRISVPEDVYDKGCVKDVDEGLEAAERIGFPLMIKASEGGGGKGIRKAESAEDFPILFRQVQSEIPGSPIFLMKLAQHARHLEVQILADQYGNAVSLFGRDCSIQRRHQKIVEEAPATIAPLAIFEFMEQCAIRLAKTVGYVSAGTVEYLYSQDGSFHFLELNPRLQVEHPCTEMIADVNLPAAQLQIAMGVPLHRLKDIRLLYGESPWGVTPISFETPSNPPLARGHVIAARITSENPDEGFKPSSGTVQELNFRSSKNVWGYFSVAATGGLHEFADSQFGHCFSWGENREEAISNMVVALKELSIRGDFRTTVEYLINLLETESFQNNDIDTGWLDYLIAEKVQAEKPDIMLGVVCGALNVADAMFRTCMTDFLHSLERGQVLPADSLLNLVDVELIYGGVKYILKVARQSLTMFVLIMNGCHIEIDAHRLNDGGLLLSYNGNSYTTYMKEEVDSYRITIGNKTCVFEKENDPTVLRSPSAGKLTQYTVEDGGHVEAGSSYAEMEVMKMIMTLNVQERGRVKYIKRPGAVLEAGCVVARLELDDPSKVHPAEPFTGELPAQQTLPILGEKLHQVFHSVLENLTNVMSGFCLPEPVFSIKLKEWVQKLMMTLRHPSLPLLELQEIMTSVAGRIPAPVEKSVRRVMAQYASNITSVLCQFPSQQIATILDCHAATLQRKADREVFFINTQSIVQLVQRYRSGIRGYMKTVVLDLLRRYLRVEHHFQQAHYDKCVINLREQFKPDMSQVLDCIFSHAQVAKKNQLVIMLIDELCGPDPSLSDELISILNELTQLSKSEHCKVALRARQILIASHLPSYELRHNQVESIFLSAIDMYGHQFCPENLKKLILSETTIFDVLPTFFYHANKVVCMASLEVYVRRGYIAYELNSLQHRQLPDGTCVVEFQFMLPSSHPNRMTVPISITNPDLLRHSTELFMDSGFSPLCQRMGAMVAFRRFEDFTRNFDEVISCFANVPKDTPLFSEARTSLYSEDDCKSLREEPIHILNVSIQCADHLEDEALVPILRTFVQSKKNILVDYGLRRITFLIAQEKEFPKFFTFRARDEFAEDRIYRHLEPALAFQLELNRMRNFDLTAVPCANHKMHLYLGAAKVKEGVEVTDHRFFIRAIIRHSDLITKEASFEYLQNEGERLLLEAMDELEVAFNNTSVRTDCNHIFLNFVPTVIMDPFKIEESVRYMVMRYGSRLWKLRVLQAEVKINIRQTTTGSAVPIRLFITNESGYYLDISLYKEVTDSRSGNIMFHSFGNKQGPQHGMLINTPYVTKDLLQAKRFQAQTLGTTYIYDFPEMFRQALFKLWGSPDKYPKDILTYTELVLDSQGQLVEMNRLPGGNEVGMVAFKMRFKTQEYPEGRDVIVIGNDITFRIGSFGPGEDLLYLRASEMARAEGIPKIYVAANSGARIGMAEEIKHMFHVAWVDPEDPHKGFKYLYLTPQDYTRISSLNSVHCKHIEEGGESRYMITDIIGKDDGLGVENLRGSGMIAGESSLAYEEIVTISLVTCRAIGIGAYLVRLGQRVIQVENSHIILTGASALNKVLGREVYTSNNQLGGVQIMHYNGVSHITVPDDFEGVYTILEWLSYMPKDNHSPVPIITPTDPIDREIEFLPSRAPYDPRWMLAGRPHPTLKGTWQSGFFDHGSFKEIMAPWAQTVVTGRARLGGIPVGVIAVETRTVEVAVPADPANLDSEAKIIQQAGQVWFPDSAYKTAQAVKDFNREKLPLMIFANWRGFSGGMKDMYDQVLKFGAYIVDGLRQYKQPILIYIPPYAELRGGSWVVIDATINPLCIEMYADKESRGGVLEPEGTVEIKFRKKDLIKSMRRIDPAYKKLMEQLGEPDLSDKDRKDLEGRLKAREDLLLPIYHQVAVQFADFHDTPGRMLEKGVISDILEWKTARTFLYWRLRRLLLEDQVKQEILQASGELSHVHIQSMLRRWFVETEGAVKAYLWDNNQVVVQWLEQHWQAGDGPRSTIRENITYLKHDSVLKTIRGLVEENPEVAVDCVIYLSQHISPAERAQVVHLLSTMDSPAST

IC50 [1]	IC50 [2]	SMILES
1730 nM	> 20000 nM	CCOC(=O)NC[C@H]1CC[C@H](CNC(=O)c2cc(-c3ccc(Cl)cc3)nc3ccccc23)CC1 [Example 32, Ethyl ({trans-4-[({[2-(4-chlorophenyl)quinolin-4-yl]carbonyl}amino)methyl]cyclo-hexyl}methyl)carbamate]
70 nM	430 nM	CC(C)(C)OC(=O)NC[C@H]1CC[C@H](CNC(=O)c2cc(-c3ccc(CNS(C)(=O)=O)cc3)nc3ccccc23)CC1 [Example 106, tert-Butyl ({trans-4-[({[2-(4-{[(methylsulfonyl)amino]methyl}phenyl)quinolin-4-yl]carbonyl}amino)methyl]cyclohexyl}methyl)carbamate]
1820 nM	3170 nM	CCOC(=O)NC[C@H]1CC[C@H](CNC(=O)c2cc(-c3ccncc3)nc3ccccc23)CC1 [Example 60, Ethyl {[trans-4-({[(2-pyridin-4-ylquinolin-4-yl)carbonyl]amino}methyl)cyclo-hexyl]methyl}carbamate]
2480 nM	> 20000 nM	CC(C)(C)OC(=O)NC[C@H]1CC[C@H](CNS(=O)(=O)c2ccc(-c3ccno3)s2)CC1 [Example 72, tert-Butyl {[trans-4-({[(5-isoxazol-5-yl-2-thienyl)sulfonyl]amino}methyl)cyclo-hexyl]methyl}carbamate]
210 nM	1030 nM	CC(C)(C)OC(=O)NC[C@H]1CC[C@H](CNC(=O)c2cc(-c3ccncc3)nc3ccccc23)CC1 [Example 7, tert-butyl {[trans-4-({[(2-pyridin-4-ylquinolin-4-yl)carbonyl]amino}methyl)cyclohexyl]methyl}-carbamate]
410 nM	960 nM	CN1CCN(c2ccc(-c3cc(C(=O)NC[C@H]4CC[C@H](CNC(=O)OCC(F)F)CC4)c4ccccc4n3)cn2)CC1 [Example 117, 2,2-Difluoroethyl[(trans-4-{[({2-[6-(4-methylpiperazin-1-yl)pyridin-3-yl]quinolin-4-yl}carbonyl)amino]methyl}cyclohexyl)methyl]carbamate]
1120 nM	> 20000 nM	CC(C)(C)OC(=O)NC[C@H]1CC[C@H](CNC(=O)c2cc(N3CCN(CCO)CC3)nc3ccccc23)CC1 [Example 185, tert-Butyl [(trans-4-{[({2-[4-(2-hydroxyethyl)piperazin-1-yl]quinolin-4-yl}carbonyl)amino]methyl}cyclohexyl)methyl]carbamate]
530 nM	3340 nM	NS(=O)(=O)c1ccc(-c2cc(C(=O)NC[C@H]3CC[C@H](CNC(=O)O[C@H]4CCOC4)CC3)c3ccccc3n2)cc1 [Example 139, (3S)-Tetrahydrofuran-3-yl[(trans-4-{[({2-[4-(aminosulfonyl)phenyl]-quinolin-4-yl}carbonyl)amino]-methyl}cyclohexyl)-methyl]carbamate]
5670 nM	> 20000 nM	CC(C)(C)OC(=O)NC[C@H]1CC[C@H](CNC(=O)c2ccnc(-c3cccc(Cl)c3)c2)CC1 [Example 51, tert-Butyl {[trans-4-({[2-(3-chlorophenyl)isonicotinoyl]amino}methyl)cyclohexyl]-methyl}carbamate]
720 nM	2260 nM	CCOC(=O)NC[C@H]1CC[C@H](CNC(=O)c2cc(-c3ccc(N4CCN(C)CC4)nc3)nc3ccccc23)CC1 [Example 119, Ethyl[(trans-4-{[({2-[6-(4-methylpiperazin-1-yl)pyridin-3-yl]quinolin-4-yl}carbonyl)amino]methyl}cyclohexyl)methyl]carbamate]
140 nM	2220 nM	CN(C)CCN1CCN(c2cc(C(=O)NC[C@H]3CC[C@H](CNC(=O)OC(C)(C)C)CC3)c3ccccc3n2)CC1 [Example 186, tert-Butyl{[trans-4-({[(2-{4-[2-(dimethylamino)ethyl]-piperazin-1-yl}quinolin-4-yl)carbonyl]amino}-methyl)cyclohexyl]-methyl}carbamate]
